Source: article PMC7522027 (Disease Models & Mechanisms, 2020)
pIC50: −log10 of the molar value. Entries after “also recorded” stand apart in the source; their conditions may differ.

Experiments:
[1] = target: T1, caALK1 (Homo sapiens, UniProt P37023, Q201D); experiment: caALK1-induced SMAD1/5 phosphorylation in HEK 293T cells; format: cell-based; details: cercosporamide 1-10 µM, LDN193189 200 nM
T1 construct: expressed in transfected cells; host or cells: HEK 293T
Description: (§1) HepG2 or HEK 293T cells were lysed in Laemmli sample buffer. Proteins were separated by sodium dodecyl sulfate polyacrylamide gel electrophoresis (SDS-PAGE) and transferred onto […] polyvinylidene difluoride (PVDF) membrane (IPVH00010, Merck Millipore). Membranes were blocked using 5% non-fat dry milk in Tris-buffered saline with 0.1% Tween 20 (655204, Merck Millipore) and probed with the respective primary and secondary antibodies. The signal was detected using Clarity™ Western ECL Substrate (1705060, Bio-Rad) and ChemiDoc Imaging System (17001402, Bio-Rad). The antibodies used for immunoblotting were raised against the following proteins: phospho-SMAD1/5/8 ([Persson et al., 1998]; 1:1000), SMAD1 (Cell Signaling Technology, #6944; 1:1000), GAPDH (Merck Millipore, #G8795; 1:5000) and hemagglutinin (HA; Roche, #12CA5; 1:1000).
(§2) For experiments with the caALK type I receptor constructs, HEK 293T cells were seeded in 24-well plates at ∼90% confluency and transfected with the DNA expression constructs in the presence of PEI. Thirty hours after transfection, the cells were added to serum-starved medium and treated with compounds for 16 h (overnight). Subsequently, the cells were washed with PBS and lysed in Laemmli sample buffer. […]

[2] = target: T2, caALK3 (Homo sapiens, UniProt P36894, Q233D); experiment: caALK3-induced SMAD1/5 phosphorylation in HEK 293T cells; format: cell-based; details: cercosporamide 1-10 µM, LDN193189 200 nM
T2 construct: expressed in transfected cells; host or cells: HEK 293T
T2 sequence (P36894 24-532 Q233D): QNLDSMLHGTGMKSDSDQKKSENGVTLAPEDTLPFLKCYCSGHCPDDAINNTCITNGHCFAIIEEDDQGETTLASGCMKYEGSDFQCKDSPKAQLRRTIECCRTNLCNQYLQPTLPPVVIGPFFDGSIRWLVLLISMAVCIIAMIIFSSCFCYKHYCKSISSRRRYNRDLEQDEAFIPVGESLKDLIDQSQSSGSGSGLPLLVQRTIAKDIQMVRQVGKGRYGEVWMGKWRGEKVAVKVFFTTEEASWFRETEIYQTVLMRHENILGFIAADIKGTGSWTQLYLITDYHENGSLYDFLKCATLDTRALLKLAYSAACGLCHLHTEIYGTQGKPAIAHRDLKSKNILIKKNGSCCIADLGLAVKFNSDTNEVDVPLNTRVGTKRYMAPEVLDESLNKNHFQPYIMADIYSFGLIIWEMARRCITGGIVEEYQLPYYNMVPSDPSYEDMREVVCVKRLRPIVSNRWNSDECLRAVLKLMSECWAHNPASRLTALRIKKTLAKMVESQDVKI
Description: as §1, §2

[3] = target: T3, BMPR1B (ALK6) (Homo sapiens, UniProt O00238); experiment: radiometric protein kinase assay, ALK6; format: biochemical; details: [ATP] = 3 μM; Fig. 7G
T3 construct: purchased ProQinase GmbH (Freiburg, Germany); host or cells: bacteria (so in the source)
T3 sequence (O00238 14-502): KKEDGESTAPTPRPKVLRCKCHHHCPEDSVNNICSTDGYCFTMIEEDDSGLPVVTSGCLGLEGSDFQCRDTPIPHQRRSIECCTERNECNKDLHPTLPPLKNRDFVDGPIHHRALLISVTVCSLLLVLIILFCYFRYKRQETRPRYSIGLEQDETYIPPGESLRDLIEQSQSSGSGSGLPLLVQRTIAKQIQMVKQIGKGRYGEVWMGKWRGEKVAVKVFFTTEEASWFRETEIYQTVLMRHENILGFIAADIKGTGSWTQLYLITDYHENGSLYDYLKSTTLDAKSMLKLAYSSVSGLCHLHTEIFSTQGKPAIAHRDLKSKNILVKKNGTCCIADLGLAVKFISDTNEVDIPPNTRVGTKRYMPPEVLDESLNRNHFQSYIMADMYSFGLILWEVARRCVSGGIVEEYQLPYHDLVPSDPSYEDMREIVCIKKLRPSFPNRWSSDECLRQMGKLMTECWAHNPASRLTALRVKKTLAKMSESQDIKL

[4] = target: T4, caALK5 (Homo sapiens, UniProt P36897, T204D); experiment: caALK5-induced SMAD phosphorylation in HEK 293T cells; format: cell-based; details: 1, 5, 10 µM
T4 construct: expressed in transfected cells; host or cells: HEK 293T
T4 sequence (P36897 34-503 T204D): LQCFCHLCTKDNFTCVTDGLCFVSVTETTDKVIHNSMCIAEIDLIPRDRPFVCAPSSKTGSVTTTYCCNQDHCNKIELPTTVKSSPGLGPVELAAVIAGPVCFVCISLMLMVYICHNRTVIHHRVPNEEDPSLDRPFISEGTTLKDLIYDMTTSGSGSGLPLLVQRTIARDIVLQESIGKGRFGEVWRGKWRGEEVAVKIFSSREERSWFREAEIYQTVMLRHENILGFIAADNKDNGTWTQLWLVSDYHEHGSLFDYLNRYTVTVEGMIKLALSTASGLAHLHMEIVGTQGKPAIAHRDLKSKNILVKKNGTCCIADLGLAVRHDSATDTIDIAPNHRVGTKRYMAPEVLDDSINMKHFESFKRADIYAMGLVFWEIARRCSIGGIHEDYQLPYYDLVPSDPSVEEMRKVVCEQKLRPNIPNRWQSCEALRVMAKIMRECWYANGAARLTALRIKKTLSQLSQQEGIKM
Description: as §1, §2

[5] = target: T5, BMPR1A (ALK3) (Homo sapiens, UniProt P36894); experiment: radiometric protein kinase assay, ALK3; format: biochemical; details: [ATP] = 0.3μM; Fig. 7F
T5 construct: purchased ProQinase GmbH (Freiburg, Germany); host or cells: bacteria (so in the source)
T5 sequence (P36894 24-532): as the sequence (P36894 24-532 Q233D) above, with D210Q counted along it

[6] = tested on: caAlk2; experiment: rescue of caAlk2 mRNA-induced developmental defects in zebrafish embryos; format: in vivo; details: examined at 48 hpf
Experimental: The pCS2+ plasmid encoding caAlk2 with a glutamine to aspartic acid substitution at position 204 was kindly donated by Jeroen Bakkers ([Smith et al., 2009]). The DNA sequences of the inserts in plasmid constructs were verified. Both plasmids were digested with NotI and mRNA was generated with SP6 RNA polymerase using a mMessage mMachine kit (Ambion). The mRNA was purified through phenol/isoamylalcohol/chloroform extraction. Zebrafish embryos were injected into the yolk at the one-cell stage with ∼1 nl of either 50 ng/µl GFP mRNA or a cocktail containing 10 ng/µl caAlk2 and 50 ng/µl GFP mRNA. […] Next, embryos were selected for fluorescence at 24 hpf and examined at 48 hpf. The phenotypes were categorized into three groups: no head; head, no eyes; head and eyes. Finally, the bar graph was generated using Prism 8.3.0 for Windows (GraphPad, San Diego, CA, USA). The presented data are a combination of two repeats of the experiment.

[7] = target: T6, MEK (MEK1 wt) (Homo sapiens, UniProt Q02750); experiment: radiometric protein kinase assay, MEK; format: biochemical; details: [ATP] = 3 μM; Fig. 7H
T6 construct: purchased ProQinase GmbH (Freiburg, Germany); host or cells: bacteria (so in the source)
T6 sequence (Q02750 whole entry): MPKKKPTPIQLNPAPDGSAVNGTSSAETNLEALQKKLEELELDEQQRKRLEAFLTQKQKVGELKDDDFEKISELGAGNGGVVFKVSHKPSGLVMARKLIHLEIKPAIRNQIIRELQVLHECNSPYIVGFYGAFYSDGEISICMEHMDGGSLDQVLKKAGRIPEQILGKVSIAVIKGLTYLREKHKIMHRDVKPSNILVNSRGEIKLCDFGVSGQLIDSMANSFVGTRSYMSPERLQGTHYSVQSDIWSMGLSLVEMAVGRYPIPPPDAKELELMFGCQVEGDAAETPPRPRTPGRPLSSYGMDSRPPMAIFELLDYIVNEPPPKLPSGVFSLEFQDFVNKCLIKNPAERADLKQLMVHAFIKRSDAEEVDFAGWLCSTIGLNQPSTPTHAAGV

[8] = tested on: BMP2-induced SMAD1/5 phosphorylation; experiment: BMP2-induced SMAD1/5 phosphorylation in HepG2 cells (immunoblot); format: cell-based, human; details: HepG2, BMP2 50 ng/ml; high concentrations (range 100 nM to 10 µM)
Experimental: For BMP stimulation, the HepG2 cells (∼50% confluency) were starved on serum-free medium for 6 h. Subsequently, prior to the addition of BMP ligands, the cells were treated with compound for 30 min. Next, the cells were stimulated with BMP2 (50 ng/ml) or BMP6 (50 ng/ml) for 45 min. The cells were then washed with PBS and lysed in Laemmli sample buffer for western blot analysis.
as §1

[9] = tested on: MEK and anaplastic lymphoma kinase (ALK) versus ALK serine/threonine kinases; experiment: kinase panel: sensitivity of control kinases relative to ALK serine/threonine kinases; format: biochemical, human; details: ratio of IC50 values
Experimental: IC50 values were calculated using Prism 5.04 for Windows (GraphPad, San Diego, CA, USA; www.graphpad.com). The mathematical model used was ‘Sigmoidal response (variable slope)’ with parameters ‘top’ fixed at 100% and ‘bottom’ at 0%. The fitting method used was a least-squares fit.

T1 sequence (P37023 22-503 Q201D): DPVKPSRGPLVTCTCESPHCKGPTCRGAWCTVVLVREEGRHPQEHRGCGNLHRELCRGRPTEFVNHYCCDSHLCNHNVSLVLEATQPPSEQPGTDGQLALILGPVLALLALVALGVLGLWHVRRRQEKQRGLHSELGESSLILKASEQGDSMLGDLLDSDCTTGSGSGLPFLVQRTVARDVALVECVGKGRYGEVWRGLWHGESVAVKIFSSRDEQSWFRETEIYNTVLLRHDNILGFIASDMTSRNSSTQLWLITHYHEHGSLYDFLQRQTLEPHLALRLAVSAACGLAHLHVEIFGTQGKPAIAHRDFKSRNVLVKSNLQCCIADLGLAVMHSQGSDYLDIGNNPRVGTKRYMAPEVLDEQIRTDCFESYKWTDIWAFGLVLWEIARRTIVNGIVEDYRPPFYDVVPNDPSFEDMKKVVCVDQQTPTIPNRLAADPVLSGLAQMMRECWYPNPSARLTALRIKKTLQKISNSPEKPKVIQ

Structure (SMILES): CC(=O)C1=C(O)C=C2Oc3c(C(N)=O)c(O)cc(O)c3[C@]2(C)C1=O [cercosporamide, Cercosporamide]
- effect on caALK1-induced SMAD1/5 phosphorylation [1]: inhibited SMAD1/5 phosphorylation
- effect on caALK3-induced SMAD1/5 phosphorylation [2]: inhibited SMAD1/5 phosphorylation
- pIC50 [3]: 6.41
- effect on caALK5-induced SMAD1/5 phosphorylation [4]: not inhibited; also recorded: only weakly inhibited
- pIC50 [5]: 6.44
- caAlk2-injected embryos that developed a head with eyes ([6]; 100 nM from 2 hpf onwards): 58%
- caAlk2-injected embryos that developed a head with eyes ([6]; 200 nM from 2 hpf onwards): 86%
- pIC50 [7]: 5.39
- effect on BMP2-induced SMAD1/5 phosphorylation [8]: capable of blocking SMAD1/5 phosphorylation
- MEK and tyrosine kinase ALK less sensitive than the ALK serine/threonine kinases [9]: 7- to 67 fold
